Holding throughout (type): cell-based, ovine
For test [1], the system named is fibrin gel constructs. Put plainly: Isolated tissue bath, relaxation of norepinephrine constriction. As to conditions: for relaxation of norepinephrine constriction: SNAP 10^−5 M, norepinephrine 3×10^−6.
The test system of test [2] is fibrin gel constructs. Put plainly: Isolated tissue bath, constriction of construct rings.
Test [3] concerns fibrin gel constructs. Put plainly: Hydroxyproline assay for collagen content of constructs. The protocol: Native tissue and vessel constructs were assayed for hydroxyproline using a modification of the methods of Reddy and Enwemeka (Clinical Biochemistry 29(3):225-9 (1996), which is hereby incorporated by reference in its entirety) to determine total collagen content. Tissues were first dabbed dry, weighed, transferred to eppendorf tubes, and then lyophilized. Samples were mixed with 2N sodium hydroxide in a total volume of 50 μl and hydrolyzed by autoclaving at 120° C. for 20 min. To the hydrolyzate was added 450 μl of chloramines-T solution containing 1.27 gm chloramines-T (Sigma) dissolved in 20 ml 50% n-propanol (Fisher) and brought to 100 ml with acetate citrate buffer containing 120 gm sodium acetate trihydrate (Fisher), 46 gm citric acid (Fisher), 12 ml acetic acid (Fisher), 34 gm sodium hydroxide bringing to 1 liter with distilled water and pH to 6.5. Mixing gently, the oxidation was allowed to proceed for 25 minutes at room temp. Samples were then gently mixed with 500 μl of Ehrlich's Reagent containing 15 gm p-dimethylaminobenzaldehyde (p-DMBA) (Sigma) dissolved in n-propanol/perchloric acid (2:1 v/v) (Fisher) and brought to 100 ml. The resulting 96-well plate of 200 μl samples was read using a spectrophotometer set to 550 nm to determine optical density, which was then correlated with collagen amount using a standard curve and a conversion factor of 8.0 μg collagen to 1 μg 4-hydroxyproline (Edwards and O'Brien, Clinica Chimica Acta 104(2):161-7 (1980), which is hereby incorporated by reference in its entirety).
Hydroxyproline is an imino acid found specifically in type I collagen at 12.5% of the total by weight. This spectrophotometric assay was used to quantitate directly the collagen content of tissue homogenates. The values are represented as μg of collagen/mg of tissue, dry weight.

Test [4] concerns fibrin gel constructs. Briefly: Cell density within vessel constructs (H&E histology). The protocol: Histological sections of the vessel constructs that were previously prepared with H&E Stain were used to count total number of cells per area. Random high powered fields were measured using Photo Spot software to calculate the actual surface area. The hematoxylin nuclear stain was used to identify the number of cells per high powered field. This was then used to calculate the number cells per surface area (cells/mm^2). Cell density within vessel constructs of the present invention was calculated using histology sections stained with hematoxylin and eosin. Total number of cells were counted per high powered field, divided by the area measured using Photospot Advanced software, and reported as number of cells/mm^2. […] However, at 10 μg/ml aprotinin and thereafter, both groups were decreased and equal. The altered pulsation group ( 1/12 pulsation) (2 wks, 608±123 cells/mm^2, n=5) was equal to both non-pulsed and pulsed at 20 μg/ml aprotinin (FIG. 17). Considering the change in cell density over time (1, 2, 3, 4 and 8 weeks), they were similar at weeks 1 and 2. […] At weeks 4 and 8, there was a significant difference between the two groups (Non-pulsed: 1 wk, 613±140, n=2; 2 wk, 591±52, n=6; 3 wk, 817±43, n=2; 4 wk, 865±17, n=4; 8 wk, 751±101, n=6; Pulsed: 1 wk, 566±33, n=2; 2 wk, 448±71, n=5; 3 wk, 480±213, n=3; 4 wk, 175±25, n=4; 8 wk, 168±54, n=3) (FIG. 18).

Test [5] relates to fibrin gel constructs. Put plainly: Total weight of fibrin gel vessel constructs. As to conditions: 10 and 20 μg/ml aprotinin, two week time point. The protocol: Vessel constructs were left on 4.0 mm silastic tubing in which they were molded, and placed in a 50 ml conical with 30 ml of culture medium. The caps (fixed with 0.22 μm filter) were either attached to the pulsation device or left unattached. The constructs were incubated in a CO2 incubator at 37° C. and 5% CO2. Forty-eight hours after vessel molding, aprotinin (0-200 μg/ml) was added. Some of the vessel constructs were connected to a pneumatic pulsation system, representing a 5-10% radial distention at 60 beats/minute, and one of two pulsation time interval schemes (continuous or 1 hour per 12 hours). Aprotinin (Sigma), a competitive serine protease inhibitor which forms stable complexes with and blocks the active site of enzymes, was added to the fibrin mixture at 0, 10, 20, or 200 μg/ml of vessel medium. Aprotinin was reconstituted using culture medium, filter sterilized through a 0.22 μm syringe filter, and stored at 2.0 mg/ml/vial at 2-8° C. Tissue sections were weighed and some were placed in 10% buffered formalin for paraffin embedding, while others were placed in isolated tissue baths. The weights of the sections were added to obtain total construct weight. […]

Test [6] deals with fibrin gel constructs. Put plainly: PCNA staining, percentage of proliferating cells. The protocol:
Proliferating cell nuclear antigen stain (“PCNA”) was used to identify and quantitate the percentage of proliferating cells within the tissue-engineered vessel constructs of the present invention. PCNA is a 36 kD molecule highly conserved between species. PCNA functions as a co-factor for DNA polymerase delta in S phase and also during DNA synthesis associated with repair. The PCNA molecule has a half life greater than 20 hours and, therefore, may detect non-proliferating cells in Go phase. Tissue section were fixed in 10% buffered formalin, and paraffin embedded. Tissue sections were cut at 4 μm and placed on positive slides. Sections were then deparaffinised and rehydrated to distilled water. Endogenous peroxidase was blocked by placing sections in […] for 10 minutes and then washed in tap water. Antigen retrieval methods were then applied. Sections were either boiled in 0.01M citrate buffer, or placed in a microwave for 30 seconds on low power. Sections were then washed 1×5 minutes in […] (TBS). Sections were placed in diluted normal serum for 10 minutes, incubated with primary antibody, and washed in TBS 2×5 minutes. Sections were also incubated with biotinylated secondary antibody, and washed in TBS 2×5 minutes. Slides were then incubated in ABC reagent (streptavidin/peroxidase complex), and washed in TBS 2×5 minutes. Slides were incubated in DAB (peroxidase substrate), and washed thoroughly in running tap water. The slides were then counterstained with hematoxylin, dehydrated, and mounted. Proliferating cell nuclear antigen (PCNA) was used to identify cells that were in a proliferating state using histological staining methods. FIGS. 11A-D represent constructs that were stained at 1 week (FIGS. 11A and 11B) and 2 weeks (FIGS. 11C and 11D). The constructs in FIGS. 11A and 11C were under non-pulsed conditions. The constructs in FIGS. 11B and 11D were under pulsed conditions. The PCNA antibody was visualized with diaminobenzidine (DAB) and counter stained with hematoxylin. There was little staining visualized at the one week time point as compared to the two week time point for both the non-pulsed and pulsed constructs. The non-pulsed tissue was slightly greater at both one and two weeks. The PCNA staining was quantitated by counting the total number of positive cells per high powered field and dividing by the total number of cells in the same field to obtain percent of proliferation.

[7] abbreviates: altered pulsation (1 hour per 12 hours), 20 μg/ml aprotinin, 2 wks.
Where [8] appears, read: non-pulsed, 10 μg/ml aprotinin, 14 days.
Where [9] appears, read: non-pulsed, 20 μg/ml aprotinin, 4 wk.
Setting [10] is: non-pulsed, 20 μg/ml aprotinin, 8 wk.
Setting [11] is: non-pulsed, 20 μg/ml aprotinin, 14 days (2 wk).
Where [12] appears, read: non-pulsed, 200 μg/ml aprotinin, 14 days.
Setting [13] is: pulsed, 10 μg/ml aprotinin, 14 days.
[14] abbreviates: pulsed, 20 μg/ml aprotinin, 4 wk.
Setting [15] is: pulsed, 20 μg/ml aprotinin, 8 wk.
The mark [16] stands for this setting: pulsed, 20 μg/ml aprotinin, 14 days (2 wk).
Setting [17] is: pulsed, 200 μg/ml aprotinin, 14 days.
The mark [18] stands for this setting: non-pulsed, 20 μg/ml aprotinin, 1 wk.
Setting [19] is: non-pulsed, 20 μg/ml aprotinin, 3 wk.
Setting [20] is: pulsed, 20 μg/ml aprotinin, 1 wk.
Where [21] appears, read: pulsed, 20 μg/ml aprotinin, 3 wk.

For `CC(=O)N[C@@H](C(=O)O)C(C)(C)SN=O` (racemic) [SNAP], the “relaxation of norepinephrine constriction” value in the test on fibrin gel constructs [1] (non-pulsed constructs) was 42 % of constriction; with fibrin gel constructs [1] (pulsed constructs), “fully”. Further, the “relaxation of norepinephrine constriction compared with 0, 10 and 20 μg/ml aprotinin” value in the test with fibrin gel constructs [1] (SNAP 10^−7 and 10^−6 M, norepinephrine 10^−6 M, non-pulsed constructs, 200 μg/ml aprotinin) is “much greater”.
As to `[Cl-].[K+]` [KCl], the constriction in the test with fibrin gel constructs [2] (118 mM KCl, non-pulsed constructs grown with 10 μg/ml aprotinin) came out at 18446±4027 dynes/cm^2; in the test with fibrin gel constructs [2] (118 mM KCl, non-pulsed constructs grown with 20 μg/ml aprotinin), 12244±2083 dynes/cm^2; in the test on fibrin gel constructs [2] (118 mM KCl, non-pulsed constructs grown with 200 μg/ml aprotinin), 6056±2003 dynes/cm^2; in the test on fibrin gel constructs [2] (118 mM KCl, pulsed constructs grown with 10 μg/ml aprotinin) it was 19274±8302 dynes/cm^2; with fibrin gel constructs [2] (118 mM KCl, pulsed constructs grown with 20 μg/ml aprotinin), 8896±1347 dynes/cm^2; in the test with fibrin gel constructs [2] (118 mM KCl, pulsed constructs grown with 200 μg/ml aprotinin) it was 2232±475 dynes/cm^2.
For `CCCCC[C@H](O)/C=C/[C@@H]1[C@@H](C/C=C\CCCC(=O)O)[C@H]2CO[C@@H]1C2` [U46619], the constriction with fibrin gel constructs [2] (U46619 3×10^−7, non-pulsed constructs, 0 μg/ml aprotinin) is 1160±775 dynes/cm^2; with fibrin gel constructs [2] (U46619 3×10^−7, non-pulsed constructs, 200 μg/ml aprotinin), 2140±416 dynes/cm^2; with fibrin gel constructs [2] (U46619 3×10^−7, pulsed constructs, 10 μg/ml aprotinin), 2670±944 dynes/cm^2; in the test on fibrin gel constructs [2] (U46619 3×10^−7, pulsed constructs, 200 μg/ml aprotinin) it was 973±240 dynes/cm^2.
With `CC(C)NCC(O)c1ccc(O)c(O)c1` (stereo not shown) [isoproterenol], the relaxation result in the test with fibrin gel constructs [1] (isoproterenol compared with SNAP) is recorded as “much less than that of SNAP”.
Take `NC[C@H](O)c1ccc(O)c(O)c1` [norepinephrine]: the constriction in the test with fibrin gel constructs [2] (norepinephrine 3×10^−6 M, non-pulsed constructs, 0 μg/ml aprotinin) is listed as 4743±1849 dynes/cm^2; with fibrin gel constructs [2] (norepinephrine 3×10^−6 M, non-pulsed constructs, 200 μg/ml aprotinin), 965±16 dynes/cm^2; in the test on fibrin gel constructs [2] (norepinephrine 3×10^−6 M, pulsed constructs, 10 μg/ml aprotinin), 4316±1738 dynes/cm^2; in the test on fibrin gel constructs [2] (norepinephrine 3×10^−6 M, pulsed constructs, 200 μg/ml aprotinin) it was 101±102 dynes/cm^2.
Turning to aprotinin, the collagen content in the test with fibrin gel constructs [3] (setting [7]) came to 266.6 ± 20.9 µg/mg; in the test on fibrin gel constructs [3] (setting [8]) it was 175.2 ± 42.3 µg/mg; in the test on fibrin gel constructs [3] (setting [9]), 239.9 ± 73.2 µg/mg; in the test on fibrin gel constructs [3] (setting [10]) it was 283.5 ± 80.3 µg/mg; in the test on fibrin gel constructs [3] (setting [11]), 225.0 ± 30.2 µg/mg; in the test on fibrin gel constructs [3] (setting [12]), 270.1 ± 46.2 µg/mg. In addition, the collagen content is 31.5 ± 22.5 µg/mg with fibrin gel constructs [3] (setting [13]); 124.5 ± 25.1 µg/mg with fibrin gel constructs [3] (setting [14]); 91.8 ± 24.3 µg/mg with fibrin gel constructs [3] (setting [15]); 105.9 ± 16.7 µg/mg with fibrin gel constructs [3] (setting [16]); 217.3 ± 21.0 µg/mg in the test on fibrin gel constructs [3] (setting [17]). The cell density in the test on fibrin gel constructs [4] (setting [7]) is recorded as 608±123 cells/mm^2; with fibrin gel constructs [4] (setting [8]), 731±108 cells/mm^2; in the test on fibrin gel constructs [4] (setting [18]), 613±140 cells/mm^2; with fibrin gel constructs [4] (setting [19]) it was 817±43 cells/mm^2; in the test on fibrin gel constructs [4] (setting [9]), 865±17 cells/mm^2; with fibrin gel constructs [4] (setting [10]) it was 751±101 cells/mm^2. Further, the cell density was determined as 591±52 cells/mm^2 in the test with fibrin gel constructs [4] (setting [11]); 635±98 cells/mm^2 with fibrin gel constructs [4] (setting [12]); 611±180 cells/mm^2 with fibrin gel constructs [4] (setting [13]); 566±33 cells/mm^2 in the test with fibrin gel constructs [4] (setting [20]); 480±213 cells/mm^2 in the test on fibrin gel constructs [4] (setting [21]); 175±25 cells/mm^2 in the test on fibrin gel constructs [4] (setting [14]). Moreover, the figures for the cell density in the test on fibrin gel constructs [4] (setting [15]), in the test with fibrin gel constructs [4] (setting [16]) and with fibrin gel constructs [4] (setting [17]) were 168±54 cells/mm^2, 448±71 cells/mm^2 and 390±59 cells/mm^2, respectively. Further, the “increase in total tissue weight with later (48 hrs) addition of aprotinin” value in the test with fibrin gel constructs [5] (non-pulsed) is 50%; in the test with fibrin gel constructs [5] (pulsed), 130%. In addition, the “percent of proliferation (PCNA positive cells)” value (“percent of proliferation” below) in the test with fibrin gel constructs [6] (setting [7]) was 26.3±5.0%; in the test with fibrin gel constructs [6] (setting [8]), 73.3±8.8%; in the test with fibrin gel constructs [6] (setting [18]), 20.44±44.0%; in the test with fibrin gel constructs [6] (setting [19]) it was 55.5±4.7%; in the test on fibrin gel constructs [6] (setting [9]), 20.1±7.6%; with fibrin gel constructs [6] (setting [10]), 22.8±3. %. Further, the “percent of proliferation” value in the test on fibrin gel constructs [6] (setting [11]) was found to be 73.6±6.3%; in the test with fibrin gel constructs [6] (setting [12]), 2.9±0.9%; in the test with fibrin gel constructs [6] (setting [13]), 12.3±3.6%; with fibrin gel constructs [6] (setting [20]), 41.7±31.1%; in the test on fibrin gel constructs [6] (setting [21]) it was 37.5±3.6%; in the test with fibrin gel constructs [6] (setting [14]) it was 28.0±6.9%. Also, the “percent of proliferation” value with fibrin gel constructs [6] (setting [15]) is on record as 14.7±7.5%; in the test on fibrin gel constructs [6] (setting [16]) it was 89.6±2.6%; in the test with fibrin gel constructs [6] (setting [17]) it was 7.7±1.9%.

For the origin of these results see patent US20040115176A1, “Fibrin-based tissue-engineered vasculature” (priority 2002, published 2004).
